Entries after “also recorded” stand apart in the source; their conditions may differ. Numbered stars: 1 amine (or outer) side, 2 acyl side, 3 side chain; on linkers, the order of the positions; unused ones are H or OH. Bridge positions count the residues as written; N and C are the ends. Square brackets hold non-standard residues; d marks the D form. Peptide text beside a SMILES is read from it. I, II: the chains in the order shown. Actinocin(9to1) = Cc1c2oc3c(C)ccc(C(=O)[*:1])c3nc-2c(C(=O)[*:2])c(N)c1=O; NMeV = CN[C@H](C(=O)O)C(C)C; Sar = CNCC(=O)O
Assays:
DRG neurons = assay: neurite outgrowth of DRG neurons cultured after intraganglionic injection in vivo; type: cell-based, rat; conditions: CSPG substrate
Method: L4-L5 DRGs from adult male Sprague-Dawley rats (250-300 g) were injected with 5 μl of saline or oncomodulin (200 ng μl^−1). After 7 d, injected ganglia were dissected and single-cell suspensions were prepared as described^50. Cells were cultured on laminin (Sigma) with or without CSPGs (Chemicon) for 20 h or 40 h. In some cases, chondroitinase ABC (0.5 U ml^−1, Seikagaku) was added. Neurite outgrowth was visualized by Tuj1 antibody to class III β-tubulin (1:5,000, Babco) and quantified in quadruplicate samples by a blinded observer. In other studies, L4-L5 DRG neurons were cultured in the presence of absence of oncomodulin, mannose and/or forskolin in RPMI-1640 to limit spontaneous outgrowth. Cells were fixed and immunostained after 3 d and evaluated for outgrowth.

RGCs [1] = assay: axon outgrowth in primary adult retinal cultures; type: cell-based, rat; conditions: for effect of inhibitor on oncomodulin-induced axon outgrowth: PD98059 5 μM, LY 294002 20 μM, Jaki 20 nM, KN92 10 μM, ActD 8 nM
Method: Protein A beads (Sigma) were incubated with either rabbit anti-OM antiserum (Swant) or normal rabbit serum (Invitrogen) for 16 h at 4° C. After extensive rinsing, beads with adsorbed IgGs were mixed with MCM (1 ml 10× concentrate, collected 8 h after zymosan treatment) for 24 h at 4° C. and then pelleted down by centrifugation. We tested 5 μl of the supernatants or untreated MCM for oncomodulin by western blotting. Bioactivity of immune-depleted and control MCM was tested in dissociated RGC cultures as described below at a 1:4 dilution, a concentration found to give a near-maximal response.
(§1) Adult rat retinal cultures were prepared as described^21. […] One week later, retinas were dissected, dissociated, and the cells plated in defined, serum-free medium. Axon growth (% RGCs extending axons ≧30 μm, ≧70 μm or ≧140 μm in length) was evaluated after 3 d in quadruplicate samples in a blinded fashion. All experiments were repeated at least three separate times. In some instances, cells were immunostained with GAP-43 antibody (1:500, Chemicon).

mature RGCs = conditions: previously reported; cited from earlier work
RGCs [2] = assay: RGC survival in primary retinal cultures; type: cell-based, rat
Method: as §1

Molecule	axon extension of mature RGCs in culture (mature RGCs)	effect of inhibitor on oncomodulin-induced axon outgrowth (RGCs [1]; KN93 10 μM)	further results
chondroitinase ABC			DRG neurite outgrowth on nonpermissive substrate (DRG neurons): promoted some outgrowth
CCCC(=O)Nc1ncnc2c1ncn2[C@@H]1O[C@@H]2COP(=O)(O)O[C@H]2[C@H]1OC(=O)CCC [dibutyryl cAMP, reference compound]			effect on oncomodulin-induced outgrowth (RGCs [1]; [dB-cAMP] above 250 μM): further increases diminished outgrowth; effect on oncomodulin-induced outgrowth (RGCs [1]; [dB-cAMP] up to 250 μM): enhanced the effect of oncomodulin
interleukin-6	do not stimulate mature RGCs to extend axons		
nerve growth factor	do not stimulate mature RGCs to extend axons		
Lysozyme			diminished RGC survival (RGCs [2]; data not shown): ~25%; axon outgrowth from RGCs (RGCs [1]; data not shown): did not enhance outgrowth
fibroblast growth factor-2	do not stimulate mature RGCs to extend axons		
epidermal growth factor	do not stimulate mature RGCs to extend axons		
calmodulin			axon outgrowth bioassay, Ca2+-binding proteins (RGCs [1]; 15 nM or tenfold higher concentration, forskolin and mannose present): inactive
CC(C)(C)c1nc2c3cc[nH]c(=O)c3c3cc(F)ccc3c2[nH]1 [Jaki, reference compound]		did not diminish oncomodulin's activity	
COc1ccc(S(=O)(=O)Nc2ccccc2CN(C)C/C=C/c2ccc(Cl)cc2)cc1 [KN92, reference compound]		did not substantially diminish outgrowth	
Cc1c2oc3c(C)ccc(C(=O)N[C@@H]4C(=O)N[C@H](C(C)C)C(=O)N5CCC[C@H]5C(=O)N(C)CC(=O)N(C)[C@@H](C(C)C)C(=O)O[C@@H]4C)c3nc-2c(C(=O)N[C@@H]2C(=O)N[C@H](C(C)C)C(=O)N3CCC[C@H]3C(=O)N(C)CC(=O)N(C)[C@@H](C(C)C)C(=O)O[C@@H]2C)c(N)c1=O [actinomycin D, reference compound] (I: T[dV]P[Sar][NMeV] / II: T[dV]P[Sar][NMeV]; ester I:1-I:C, II:1-II:C; linker I:N-II:N via Actinocin(9to1))		blocked the effects of oncomodulin on outgrowth	RGC survival (RGCs [2]; retinal culture): without altering RGC survival
COc1cccc(-c2cc(=O)c3ccccc3o2)c1N [PD98059, reference compound]		not blocked; also recorded: enhanced outgrowth slightly	
COc1ccc(S(=O)(=O)N(CCO)c2ccccc2CN(C)C/C=C/c2ccc(Cl)cc2)cc1 [KN93, reference compound]		blocked the effect of oncomodulin fully	effect of inhibitor on outgrowth induced by forskolin plus mannose (RGCs [1]; KN93 10 μM, three inhibitors combined): without altering the effect of mannose and forskolin

From US20090156496A1, “METHODS AND COMPOSITIONS FOR TREATING AND PREVENTING PERIPHERAL NERVE DAMAGE” (CHILDREN'S MEDICAL CENTER CORPORATION, INC., priority 2006, published 2009)
